# Data published in ChEMBL document CHEMBL2086231, “Novel pleuromutilin derivatives as antibacterial agents: synthesis, biological evaluation and molecular docking studies” (2012).
# System: Staphylococcus aureus
# Assay: Antibacterial activity against methicillin-sensitive Staphylococcus aureus isolate cpu0211 after 18 to 20 hrs by agar dilution method
# Assay type: functional
row,SMILES,MIC
1,C=C[C@]1(C)C[C@@H](OC(=O)CSCc2csc(NC(=O)CN(CCCC)CCCC)n2)[C@]2(C)[C@H](C)CC[C@]3(CCC(=O)[C@H]32)[C@@H](C)[C@@H]1O,4 µg/mL

# System: Staphylococcus aureus
# Assay: Antibacterial activity against methicillin-sensitive Staphylococcus aureus isolate cpu0587 after 18 to 20 hrs by agar dilution method
# Assay type: functional
row,SMILES,MIC
1,C=C[C@]1(C)C[C@@H](OC(=O)CSCc2csc(NC(=O)CN(CCCC)CCCC)n2)[C@]2(C)[C@H](C)CC[C@]3(CCC(=O)[C@H]32)[C@@H](C)[C@@H]1O,4 µg/mL

# System: Staphylococcus aureus
# Assay: Antibacterial activity against methicillin-sensitive Staphylococcus aureus isolate cpu1044 after 18 to 20 hrs by agar dilution method
# Assay type: functional
row,SMILES,MIC
1,C=C[C@]1(C)C[C@@H](OC(=O)CSCc2csc(NC(=O)CN(CCCC)CCCC)n2)[C@]2(C)[C@H](C)CC[C@]3(CCC(=O)[C@H]32)[C@@H](C)[C@@H]1O,4 µg/mL

# System: Staphylococcus aureus
# Assay: Antibacterial activity against methicillin-sensitive Staphylococcus aureus isolate cpu1344 after 18 to 20 hrs by agar dilution method
# Assay type: functional
row,SMILES,MIC
1,C=C[C@]1(C)C[C@@H](OC(=O)CSCc2csc(NC(=O)CN(CCCC)CCCC)n2)[C@]2(C)[C@H](C)CC[C@]3(CCC(=O)[C@H]32)[C@@H](C)[C@@H]1O,16 µg/mL

# System: Staphylococcus aureus
# Assay: Antibacterial activity against methicillin-resistant Staphylococcus aureus isolate cpu0446 after 18 to 20 hrs by agar dilution method
# Assay type: functional
row,SMILES,MIC
1,C=C[C@]1(C)C[C@@H](OC(=O)CSCc2csc(NC(=O)CN(CCCC)CCCC)n2)[C@]2(C)[C@H](C)CC[C@]3(CCC(=O)[C@H]32)[C@@H](C)[C@@H]1O,8 µg/mL

# System: Staphylococcus aureus
# Assay: Antibacterial activity against methicillin-resistant Staphylococcus aureus isolate cpu0887 after 18 to 20 hrs by agar dilution method
# Assay type: functional
row,SMILES,MIC
1,C=C[C@]1(C)C[C@@H](OC(=O)CSCc2csc(NC(=O)CN(CCCC)CCCC)n2)[C@]2(C)[C@H](C)CC[C@]3(CCC(=O)[C@H]32)[C@@H](C)[C@@H]1O,32 µg/mL

# System: Staphylococcus aureus
# Assay: Antibacterial activity against methicillin-resistant Staphylococcus aureus isolate cpu1098 after 18 to 20 hrs by agar dilution method
# Assay type: functional
row,SMILES,MIC
1,C=C[C@]1(C)C[C@@H](OC(=O)CSCc2csc(NC(=O)CN(CCCC)CCCC)n2)[C@]2(C)[C@H](C)CC[C@]3(CCC(=O)[C@H]32)[C@@H](C)[C@@H]1O,8 µg/mL

# System: Staphylococcus aureus
# Assay: Antibacterial activity against methicillin-resistant Staphylococcus aureus isolate cpu3256 after 18 to 20 hrs by agar dilution method
# Assay type: functional
row,SMILES,MIC
1,C=C[C@]1(C)C[C@@H](OC(=O)CSCc2csc(NC(=O)CN(CCCC)CCCC)n2)[C@]2(C)[C@H](C)CC[C@]3(CCC(=O)[C@H]32)[C@@H](C)[C@@H]1O,8 µg/mL

# System: Staphylococcus epidermidis
# Assay: Antibacterial activity against methicillin-sensitive Staphylococcus epidermidis isolate cpu0315 after 18 to 20 hrs by agar dilution method
# Assay type: functional
row,SMILES,MIC
1,C=C[C@]1(C)C[C@@H](OC(=O)CSCc2csc(NC(=O)CN(CCCC)CCCC)n2)[C@]2(C)[C@H](C)CC[C@]3(CCC(=O)[C@H]32)[C@@H](C)[C@@H]1O,8 µg/mL

# System: Staphylococcus epidermidis
# Assay: Antibacterial activity against methicillin-sensitive Staphylococcus epidermidis isolate cpu0347 after 18 to 20 hrs by agar dilution method
# Assay type: functional
row,SMILES,MIC
1,C=C[C@]1(C)C[C@@H](OC(=O)CSCc2csc(NC(=O)CN(CCCC)CCCC)n2)[C@]2(C)[C@H](C)CC[C@]3(CCC(=O)[C@H]32)[C@@H](C)[C@@H]1O,8 µg/mL

# System: Staphylococcus epidermidis
# Assay: Antibacterial activity against methicillin-sensitive Staphylococcus epidermidis isolate cpu2089 after 18 to 20 hrs by agar dilution method
# Assay type: functional
row,SMILES,MIC
1,C=C[C@]1(C)C[C@@H](OC(=O)CSCc2csc(NC(=O)CN(CCCC)CCCC)n2)[C@]2(C)[C@H](C)CC[C@]3(CCC(=O)[C@H]32)[C@@H](C)[C@@H]1O,4 µg/mL

# System: Staphylococcus epidermidis
# Assay: Antibacterial activity against methicillin-sensitive Staphylococcus epidermidis isolate cpu1561 after 18 to 20 hrs by agar dilution method
# Assay type: functional
row,SMILES,MIC
1,C=C[C@]1(C)C[C@@H](OC(=O)CSCc2csc(NC(=O)CN(CCCC)CCCC)n2)[C@]2(C)[C@H](C)CC[C@]3(CCC(=O)[C@H]32)[C@@H](C)[C@@H]1O,16 µg/mL

# System: Staphylococcus epidermidis
# Assay: Antibacterial activity against methicillin-resistant Staphylococcus epidermidis isolate cpu2623 after 18 to 20 hrs by agar dilution method
# Assay type: functional
row,SMILES,MIC
1,C=C[C@]1(C)C[C@@H](OC(=O)CSCc2csc(NC(=O)CN(CCCC)CCCC)n2)[C@]2(C)[C@H](C)CC[C@]3(CCC(=O)[C@H]32)[C@@H](C)[C@@H]1O,4 µg/mL

# System: Staphylococcus epidermidis
# Assay: Antibacterial activity against methicillin-resistant Staphylococcus epidermidis isolate cpu3889 after 18 to 20 hrs by agar dilution method
# Assay type: functional
row,SMILES,MIC
1,C=C[C@]1(C)C[C@@H](OC(=O)CSCc2csc(NC(=O)CN(CCCC)CCCC)n2)[C@]2(C)[C@H](C)CC[C@]3(CCC(=O)[C@H]32)[C@@H](C)[C@@H]1O,16 µg/mL

# System: Staphylococcus epidermidis
# Assay: Antibacterial activity against methicillin-resistant Staphylococcus epidermidis isolate cpu3569 after 18 to 20 hrs by agar dilution method
# Assay type: functional
row,SMILES,MIC
1,C=C[C@]1(C)C[C@@H](OC(=O)CSCc2csc(NC(=O)CN(CCCC)CCCC)n2)[C@]2(C)[C@H](C)CC[C@]3(CCC(=O)[C@H]32)[C@@H](C)[C@@H]1O,8 µg/mL

# System: Staphylococcus epidermidis
# Assay: Antibacterial activity against methicillin-resistant Staphylococcus epidermidis isolate cpu2736 after 18 to 20 hrs by agar dilution method
# Assay type: functional
row,SMILES,MIC
1,C=C[C@]1(C)C[C@@H](OC(=O)CSCc2csc(NC(=O)CN(CCCC)CCCC)n2)[C@]2(C)[C@H](C)CC[C@]3(CCC(=O)[C@H]32)[C@@H](C)[C@@H]1O,16 µg/mL
